This experiment relates to βARR1 MCL site mutants coupling to pβ2V2R. Kind of experiment: [3H]-Fen binding with βARR1 MCL site mutants. The experiment is classed as biochemical, Rattus norvegicus. To be noted: mutations P131A, D135A, K138A, C140A and E283A. Here is the method:
The expression and purification of β-arrestins have been described previously[44],[62]–[64]. In brief, E. coli BL21 (DE3) pLysS cells (New England Biolabs: C2527I) carrying pGEX4T1-Rattus norvegicus βARR1 or βARR2 construct, with their C terminus truncated (at amino acid 393 or 394, respectively), were cultured in Terrific Broth (Teknova) medium at 37 °C. After OD600 reached 0.6–0.8, the cells were induced with 0.1 mM isopropyl-β-D-thiogalactopyranoside (IPTG) at 18 °C overnight. […] Eluted fractions were analysed by SDS–PAGE, pooled, concentrated using 30 kDa MWCO Amicon Ultra-15 Centrifugal Filter devices, flash-frozen in liquid nitrogen, and stored in aliquots at −80 °C. […] Protein concentrations for each protein were determined by ultraviolet absorption at 280 nm and extinction coefficients estimated using the ExPASy ProtParam tool[67].
To assess the effects of β-arrestin modulators on β-arrestin- or Gαs–βγ-promoted high-affinity agonist binding, [^3H]-Fen binding assays were performed using membranes from Sf9 cells expressing phosphorylated β2V2R (pβ2V2R) or β2AR[28]. […] Bound [^3H]-Fen was extracted overnight in scintillation fluid and quantified by scintillation counting. Specific binding was calculated by subtracting nonspecific from total binding.

This note sets out measurements from paper PMC13489962, “Small-molecule modulation of β-arrestins” (Nature, 2026).

On to `C=C1C(=O)[C@]23[C@H](O)[C@H]1CC[C@H]2[C@@]12CO[C@]3(O)[C@@H](O)[C@@H]1C(C)(C)CC[C@@H]2O` [Cmpd-5, (1S,4aR,5S,6S,6aR,9S,11aS,11bS,14R)-1,5,6,14-tetrahydroxy−4,4-dimethyl-8-methylenedecahydro-1H-6,11b-(epoxymethano)-6a,9-methanocyclohepta[a]naphthalen-7(8H)-one], for which the “effect of mutation on Cmpd-5 inhibition of βARR1 coupling” value is “negligible effects”.
